Measured values reported in EPA's CvTdb concentration-time database.

Experiments:
[1] = system: rat; test: concentration in blood after dosing; details: dosed: benzo[a]pyrene, male, Sprague Dawley
[2] = system: Rat; test: concentration in plasma after dosing; details: dosed: Tetralin, 2 mg/kg, iv, Male, F344
[3] = system: Rat; test: concentration in plasma after dosing; details: dosed: Tetralin, 2 mg/kg, iv, Male, F344; remark: listed apart in the source
[4] = system: Rat; test: concentration in plasma after dosing; details: dosed: Tetralin, iv
[5] = system: Rat; test: concentration in plasma after dosing; details: 4 h; dosed: Tetralin; 20 mg/kg; iv; Male; F344

[3H][3H] [[3]H]
[1]
Details | concentration in blood [nM]
0 h, 1.70 nmol, iv | 37.2
0 h, 3.20 nmol, oral | 0.288
0 h, 4 nmol, oral | 0.112
0.1116 h, 1.70 nmol, iv | 12
0.1125 h, 1.70 nmol, iv | 18.1
0.1153 h, 1.70 nmol, iv | 8.27
0.1252 h, 1.70 nmol, iv | 3.03
0.1473 h, 1.70 nmol, iv | 12.7
0.1638 h, 4 nmol, oral | 0.0356
0.1807 h, 4 nmol, oral | 0.233
0.182 h, 1.70 nmol, iv | 8.84
0.2047 h, 3.20 nmol, oral | 0.443
0.3049 h, 1.70 nmol, iv | 3.66
0.3458 h, 1.70 nmol, iv | 3.2
0.4131 h, 3.20 nmol, oral | 0.622
0.4184 h, 4 nmol, oral | 0.364
0.4356 h, 4 nmol, oral | 0.0332
0.443 h, 3.20 nmol, oral | 0.188
0.6282 h, 4 nmol, oral | 0.444
0.6407 h, 1.70 nmol, iv | 2.67
0.6517 h, 3.20 nmol, oral | 0.22
0.6678 h, 4 nmol, oral | 0.0641
0.6836 h, 3.20 nmol, oral | 0.741
0.6859 h, 1.70 nmol, iv | 1.6
0.8687 h, 4 nmol, oral | 0.516
0.9146 h, 1.70 nmol, iv | 2.27
0.9355 h, 1.70 nmol, iv | 0.81
0.9369 h, 4 nmol, oral | 0.0732
0.9512 h, 3.20 nmol, oral | 0.245
0.9543 h, 3.20 nmol, oral | 0.873
1.04 h, 3.20 nmol, oral | 0.279
1.135 h, 3.20 nmol, oral | 0.947
1.371 h, 1.70 nmol, iv | 1.8
1.4 h, 3.20 nmol, oral | 0.297
1.416 h, 1.70 nmol, iv | 0.882
1.435 h, 3.20 nmol, oral | 1.17
1.639 h, 3.20 nmol, oral | 0.347
1.858 h, 1.70 nmol, iv | 1.32
1.88 h, 1.70 nmol, iv | 0.331
1.886 h, 4 nmol, oral | 0.208
1.95 h, 3.20 nmol, oral | 1.17
2.33 h, 3.20 nmol, oral | 0.383
2.464 h, 3.20 nmol, oral | 1.19
2.498 h, 4 nmol, oral | 0.817
3.067 h, 3.20 nmol, oral | 1.37
3.756 h, 3.20 nmol, oral | 0.16
3.763 h, 4 nmol, oral | 0.0925
3.824 h, 1.70 nmol, iv | 1.31
3.841 h, 1.70 nmol, iv | 0.238
4.13 h, 4 nmol, oral | 0.9
4.75 h, 3.20 nmol, oral | 0.144
4.761 h, 3.20 nmol, oral | 1.39
5.695 h, 4 nmol, oral | 0.059
5.72 h, 3.20 nmol, oral | 0.0876
5.758 h, 3.20 nmol, oral | 1.58
5.767 h, 1.70 nmol, iv | 0.231
5.852 h, 1.70 nmol, iv | 1.2
7.678 h, 3.20 nmol, oral | 0.0754
7.696 h, 3.20 nmol, oral | 1.38
8.636 h, 1.70 nmol, iv | 1.06
8.719 h, 1.70 nmol, iv | 0.195
9.661 h, 3.20 nmol, oral | 1.58
9.666 h, 3.20 nmol, oral | 0.0665
11.66 h, 4 nmol, oral | 0.971
11.69 h, 3.20 nmol, oral | 1.46
11.71 h, 3.20 nmol, oral | 0.0645
11.72 h, 4 nmol, oral | 0.0461
12.06 h, 1.70 nmol, iv | 0.983
23.76 h, 4 nmol, oral | 0.0211
23.79 h, 3.20 nmol, oral | 0.0341
23.82 h, 3.20 nmol, oral | 1.25
23.82 h, 4 nmol, oral | 0.858
28.68 h, 1.70 nmol, iv | 0.0889
29.09 h, 1.70 nmol, iv | 0.82
31.89 h, 3.20 nmol, oral | 0.0299
153 s, 1.70 nmol, iv | 38.5
172 s, 1.70 nmol, iv | 16.8
225 s, 4 nmol, oral | 0.176
238 s, 3.20 nmol, oral | 0.0632
265 s, 1.70 nmol, iv | 26.5
278 s, 1.70 nmol, iv | 26.9
297 s, 3.20 nmol, oral | 0.492
321 s, 3.20 nmol, oral | 0.107
331 s, 4 nmol, oral | 0.194

c1ccc2c(c1)CCCC2 [Tetralin]
concentration in plasma [µg/g]
Details | 0.505 h | 1 h | 8 h | 24 h
[2] | 0.246 | – | 0.00426 | –
[3] | – | 0.066 | – | 0.00085

concentration in plasma [µg/g], [4]
Details | F344 | Harlan Sprague Dawley
0.25 h, 20 mg/kg, Female | – | 9.76
0.2517 h, 2 mg/kg, Male | 0.888 | –
0.2533 h, 2 mg/kg, Male | – | 0.449
0.5033 h, 20 mg/kg, Female | – | 2.55
0.505 h, 2 mg/kg, Male | – | 0.207
0.5067 h, 2 mg/kg, Male | 0.254 | –
0.75 h, 2 mg/kg, Male | 0.107 | 0.0681
0.75 h, 20 mg/kg, Female | – | 2.11
1 h, 2 mg/kg, Male | 0.11 | 0.0492
1 h, 20 mg/kg, Female | – | 2.1
2 h, 2 mg/kg, Male | 0.0262 | 0.0157
2 h, 20 mg/kg, Female | – | 0.596
4 h, 2 mg/kg, Male | 0.0114 | 0.0103
4 h, 20 mg/kg, Female | – | 0.2
4 h, 20 mg/kg, Male | 0.158 | –
6 h, 2 mg/kg, Male | 0.00667 | 0.00504
6.017 h, 20 mg/kg, Female | – | 0.105
8 h, 2 mg/kg, Male | 0.00488 | 0.00316
8 h, 20 mg/kg, Female | – | 0.0424
12 h, 2 mg/kg, Male | 0.00332 | 0.00151
12 h, 20 mg/kg, Female | – | 0.0371
24 h, 2 mg/kg, Male | 0.00081 | –
24 h, 20 mg/kg, Female | – | 0.00866
301 s, 20 mg/kg, Male | 21 | –
303 s, 20 mg/kg, Female | – | 23.1
307 s, 2 mg/kg, Male | – | 1.68
322 s, 2 mg/kg, Male | 1.64 | –

Details | concentration in plasma [µg/g]
[5] | 0.15
